Measurements: ChEMBL document CHEMBL1152511, “Structural basis for alpha-conotoxin potency and selectivity” (Bioorg Med Chem, 2009)
pIC50: −log10 of the molar value. Residues, ends and D or L forms follow the SMILES beside them.

Tests used:
[1] = biological target: Neuronal acetylcholine receptor; alpha6/beta2 (Homo sapiens, UniProt P17787+Q15825); assay: Inhibition of alpha6beta2 nAChR; assay type: protein-complex assay
[2] = Selectivity for alpha3beta2 nAChR over alpha6beta2 nAChR
[3] = Selectivity ratio of IC50 for alpha6beta2 nAChR to IC50 for alpha3beta2 nAChR
[4] = biological target: Neuronal acetylcholine receptor; alpha3/beta2 (Homo sapiens, UniProt P17787+P32297); assay: Inhibition of alpha3beta2 nAChR; assay type: protein-complex assay
Sequence of Neuronal acetylcholine receptor; alpha3/beta2 (P17787 whole entry): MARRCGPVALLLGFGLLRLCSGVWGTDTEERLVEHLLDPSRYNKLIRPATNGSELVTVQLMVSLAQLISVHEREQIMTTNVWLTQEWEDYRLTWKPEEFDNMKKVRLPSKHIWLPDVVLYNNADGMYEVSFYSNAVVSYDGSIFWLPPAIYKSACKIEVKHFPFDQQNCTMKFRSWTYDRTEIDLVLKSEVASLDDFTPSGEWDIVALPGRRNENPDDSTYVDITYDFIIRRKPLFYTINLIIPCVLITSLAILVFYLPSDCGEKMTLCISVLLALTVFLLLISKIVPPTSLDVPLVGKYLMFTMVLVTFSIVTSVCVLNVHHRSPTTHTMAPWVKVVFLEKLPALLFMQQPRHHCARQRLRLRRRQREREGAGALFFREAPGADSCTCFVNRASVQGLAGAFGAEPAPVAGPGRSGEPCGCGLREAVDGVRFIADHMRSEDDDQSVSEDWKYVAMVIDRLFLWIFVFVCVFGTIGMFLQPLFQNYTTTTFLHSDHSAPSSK
Sequence of Neuronal acetylcholine receptor; alpha3/beta2 (P32297 whole entry): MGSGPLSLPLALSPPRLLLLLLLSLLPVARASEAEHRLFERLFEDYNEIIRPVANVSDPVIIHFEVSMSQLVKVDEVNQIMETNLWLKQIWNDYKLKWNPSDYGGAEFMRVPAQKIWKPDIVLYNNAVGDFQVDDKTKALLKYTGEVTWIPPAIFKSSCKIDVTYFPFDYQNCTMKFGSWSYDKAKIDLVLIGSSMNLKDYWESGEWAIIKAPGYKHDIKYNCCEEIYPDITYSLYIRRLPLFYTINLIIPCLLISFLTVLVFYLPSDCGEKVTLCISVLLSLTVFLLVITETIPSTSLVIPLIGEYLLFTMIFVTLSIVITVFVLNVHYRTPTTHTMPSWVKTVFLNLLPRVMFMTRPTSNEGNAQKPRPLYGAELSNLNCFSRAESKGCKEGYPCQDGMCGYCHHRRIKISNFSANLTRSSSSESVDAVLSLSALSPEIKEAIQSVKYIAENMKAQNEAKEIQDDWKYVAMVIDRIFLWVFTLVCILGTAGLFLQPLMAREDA

Sequence of Neuronal acetylcholine receptor; alpha6/beta2 (P17787 whole entry): as the sequence (P17787 whole entry) above
Sequence of Neuronal acetylcholine receptor; alpha6/beta2 (Q15825 whole entry): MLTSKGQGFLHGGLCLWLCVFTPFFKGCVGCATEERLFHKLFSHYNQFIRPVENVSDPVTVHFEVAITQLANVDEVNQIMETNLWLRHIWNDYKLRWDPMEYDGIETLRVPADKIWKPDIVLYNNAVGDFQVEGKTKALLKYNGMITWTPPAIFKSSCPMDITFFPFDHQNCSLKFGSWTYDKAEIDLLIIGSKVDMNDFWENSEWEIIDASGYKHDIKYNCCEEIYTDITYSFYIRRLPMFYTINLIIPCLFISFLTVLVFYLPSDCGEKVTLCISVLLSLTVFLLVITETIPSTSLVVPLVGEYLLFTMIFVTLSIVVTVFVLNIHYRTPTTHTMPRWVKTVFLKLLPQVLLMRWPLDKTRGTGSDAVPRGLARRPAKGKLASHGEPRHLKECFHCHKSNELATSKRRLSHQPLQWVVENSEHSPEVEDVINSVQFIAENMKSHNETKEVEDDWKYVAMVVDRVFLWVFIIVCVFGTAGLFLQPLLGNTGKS

Row | Structure (SMILES) | pIC50 [1] | Selectivity ratio [2] | Ratio IC50 [3] | pIC50 [4]
1 | CC(C)C[C@H](NC(=O)[C@@H](NC(=O)[C@H](C)NC(=O)[C@H](CS)NC(=O)[C@@H]1CCCN1C(=O)[C@@H]1CCCN1C(=O)[C@@H](NC(=O)[C@H](CO)NC(=O)[C@H](CS)NC(=O)[C@H](CS)NC(=O)CN)[C@@H](C)O)C(C)C)C(=O)N[C@@H](Cc1ccc(O)cc1)C(=O)N[C@@H](CS)C(=O)O (H-GCCSTPPCAVLYC-OH) | 9.59 | 20 | 22 | 8.24
2 | CC[C@H](C)[C@H](NC(=O)[C@H](CS)NC(=O)[C@@H]1CCCN1C(=O)[C@@H]1CCCN1C(=O)[C@H](CCCNC(=N)N)NC(=O)[C@H](CO)NC(=O)[C@H](CS)NC(=O)[C@H](CS)NC(=O)CN)C(=O)N[C@@H](C)C(=O)N[C@@H](CC(N)=O)C(=O)N[C@@H](CC(N)=O)C(=O)N1CCC[C@H]1C(=O)N[C@@H](CC(=O)O)C(=O)N[C@@H](CC(C)C)C(=O)N[C@@H](CS)C(=O)O | – | – | – | 8.46
3 | CC[C@H](C)[C@H](NC(=O)[C@H](Cc1cnc[nH]1)NC(=O)[C@@H]1CCCN1C(=O)[C@H](CC(N)=O)NC(=O)[C@H](CC(N)=O)NC(=O)[C@@H](NC(=O)[C@H](CC(N)=O)NC(=O)[C@H](CS)NC(=O)[C@H](C)NC(=O)[C@@H]1CCCN1C(=O)[C@H](Cc1cnc[nH]1)NC(=O)[C@H](CO)NC(=O)[C@H](CS)NC(=O)[C@H](CS)NC(=O)CN)C(C)C)C(=O)N[C@@H](CS)C(=O)NCC(=O)O (H-GCCSHPACNVNNPHICG-OH) | 6.70 | 20 | 0.0547 | 7.96
